Like-named read-outs stand apart in the source and are kept apart here.
What was measured:
[1] = target: T1, human CAT2B (SLC7A2B) (Homo sapiens, UniProt P52569); experiment: Inhibition of CAT2B-mediated substrate uptake in HEK CAT2B cells; type: cell-based
T1 construct: expressed in transfected cells
Method: (§1) Cell lines and basic cell culture conditions have previously been described, [24]. The original choice of human embryonic kidney cells (HEK293) cells for transfection with CAT1-, CAT2A- or CAT2B- was based on their reliable growth and well established propensity for transfection and cellular uptake experiments. In brief, uptake assays were performed using [^3H]-labeled substrate and human embryonic kidney (HEK293) cells stably overexpressing the empty vector only (HEK VCG418 and HEK VChygro, depending on selection conditions) or human CAT1 (HEK CAT1, gene: SLC7A1, NM_003045.4), CAT2A (HEK CAT2A, gene: SLC7A2A, NM_003046.5) or CAT2B (HEK CAT2B, SLC7A2B, NM_001008539.3). The cells were cultured in minimal essential medium containing 10% heat-inactivated fetal bovine serum, 100 U/l penicillin, 100 μg/ml streptomycin, and either G418 (800 µg/ml) or hygromycin B (260 µg/ml) at 37 °C and 5% CO2 with subculture as required. Trypsin (0.05%)-EDTA (0.02%) solution was used to detach cells. All cell culture media supplements were obtained from Invitrogen GmbH (Karlsruhe, Germany).
(§2) The transport assays were performed as previously described with minor modifications, [24]. Cells were seeded into poly-D-lysine-coated 12-well plates. Sodium butyrate (10 mmol/l) was added after 24 h of culture for 24 h to enhance CAT1, CAT2A or CAT2B protein expression. […] In order to identify the period of linear L-homoarginine uptake time dependence was assessed. Cells were incubated with the transport buffer containing 100 μmol/L L-homoarginine at 37 °C for 1, 2.5, 5, 10 and 30 min. For determination of kinetic parameters of CAT-mediated L-homoarginine transport increasing L-homoarginine concentrations and an incubation time of 2.5 min were used.
(§3) After cooling to 0 °C the cells were washed three times with ice-cold transport buffer and lysed with 0.2% SDS. The intracellular accumulation of radioactivity was determined by liquid scintillation counting (TriCarb 2800; PerkinElmer Life and Analytical Sciences, Inc.) after adding 4 ml of scintillation solution (Ultima Gold XR; PerkinElmer Life and Analytical Sciences, Inc., Rodgau-Jügesheim, Germany). A bicinchoninic acid assay was used to assess the protein concentrations. […]
(§4) Statistical analysis was performed using GraphPad Prism 5 (version 5.01, 2007, GraphPad Software, San Diego, CA, USA). Net transport data were calculated as the difference of uptake from cells transfected with the respective CAT transporter and the corresponding empty control vector. […] KM-values for the uptake transport were calculated using Michaelis–Menten enzyme kinetics. The corresponding IC50 values for inhibition were calculated by fitting the data to a sigmoid dose–response regression curve. […]

[2] = target: T2, human CAT2A (SLC7A2A) (Homo sapiens, UniProt P52569); experiment: Inhibition of CAT2A-mediated substrate uptake in HEK CAT2A cells; type: cell-based; settings: for inhibition of CAT2A-mediated transport of L-homoarginine: substrate L-homoarginine 100 µmol/l, inhibitor 1-10000 µmol/l, IC50 not calculable
T2 construct: expressed in transfected cells
Method: as §1, with “All cell culture media supplements were obtained from Invitrogen GmbH (Karlsruhe, Germany).” left out
The transport assays were performed as previously described with minor modifications, [24]. […] In order to identify the period of linear L-homoarginine uptake time dependence was assessed. […]
as §3, with “Germany).” for “Germany). A bicinchoninic acid assay was used to assess the protein concentrations.”
as §4

[3] = target: T3, human CAT1 (SLC7A1) (Homo sapiens, UniProt P30825); experiment: Inhibition of CAT1-mediated substrate uptake in HEK CAT1 cells; type: cell-based
T3 construct: expressed in transfected cells
Method: as §1, §2, §3, §4

[4] = set-up: method as in PMID 27434056; settings: healthy volunteers, augmented from 2.9 µmol/l; cited from earlier work
[5] = test system: rat hepatocytes; set-up: method as in PMID 7068644; settings: read-out: KM for uptake of L-homoarginine by cells; cited from earlier work
[6] = target: T2, human CAT2A (SLC7A2A); experiment: CAT2A-mediated uptake of [3H]-L-homoarginine in HEK293 cells overexpressing CAT2A; type: cell-based
Method: as §1
as §2, with “For determination of kinetic parameters of CAT-mediated L-homoarginine transport increasing L-homoarginine concentrations and an incubation time of 2.5 min were used.” left out
as §4

[7] = test system: fibroblasts; set-up: method as in PMID 7040384; settings: read-out: KM for uptake of L-homoarginine by cells; cited from earlier work
[8] = target: T3, human CAT1 (SLC7A1); experiment: CAT1-mediated uptake of [3H]-L-homoarginine in HEK293 cells overexpressing CAT1; type: cell-based
Method: as §1
as §2, with “For determination of kinetic parameters of CAT-mediated L-homoarginine transport increasing L-homoarginine concentrations and an incubation time of 2.5 min were used.” left out
as §4

[9] = target: T1, human CAT2B (SLC7A2B); experiment: CAT2B-mediated uptake of [3H]-L-homoarginine in HEK293 cells overexpressing CAT2B; type: cell-based
Method: as §1
as §2, with “For determination of kinetic parameters of CAT-mediated L-homoarginine transport increasing L-homoarginine concentrations and an incubation time of 2.5 min were used.” left out
as §4

[10] = substrate L-homoarginine 100 µmol/l, inhibitor 1-10000 µmol/l, read-out: IC50 for inhibition of CAT2B-mediated uptake of L-homoarginine
[11] = net uptake, 2.5 min incubation, 37 °C

T1 sequence (P52569 whole entry): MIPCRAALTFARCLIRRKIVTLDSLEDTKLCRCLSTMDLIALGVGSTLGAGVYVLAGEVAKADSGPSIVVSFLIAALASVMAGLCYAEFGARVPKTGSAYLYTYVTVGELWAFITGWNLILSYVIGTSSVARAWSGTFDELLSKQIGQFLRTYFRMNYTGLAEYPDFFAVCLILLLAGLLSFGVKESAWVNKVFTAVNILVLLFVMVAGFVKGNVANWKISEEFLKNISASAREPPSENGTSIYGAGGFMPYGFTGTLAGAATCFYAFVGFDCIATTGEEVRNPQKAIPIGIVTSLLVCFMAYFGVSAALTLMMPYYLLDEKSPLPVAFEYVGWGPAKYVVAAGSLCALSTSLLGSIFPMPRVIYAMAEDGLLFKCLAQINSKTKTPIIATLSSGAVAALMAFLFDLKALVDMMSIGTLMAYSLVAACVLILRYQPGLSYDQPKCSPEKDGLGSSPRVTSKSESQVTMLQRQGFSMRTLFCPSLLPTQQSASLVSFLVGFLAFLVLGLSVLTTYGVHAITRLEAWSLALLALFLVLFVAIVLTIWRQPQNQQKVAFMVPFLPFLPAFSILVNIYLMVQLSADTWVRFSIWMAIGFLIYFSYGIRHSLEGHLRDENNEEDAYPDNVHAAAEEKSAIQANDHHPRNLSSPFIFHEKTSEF
T3 sequence (P30825 whole entry): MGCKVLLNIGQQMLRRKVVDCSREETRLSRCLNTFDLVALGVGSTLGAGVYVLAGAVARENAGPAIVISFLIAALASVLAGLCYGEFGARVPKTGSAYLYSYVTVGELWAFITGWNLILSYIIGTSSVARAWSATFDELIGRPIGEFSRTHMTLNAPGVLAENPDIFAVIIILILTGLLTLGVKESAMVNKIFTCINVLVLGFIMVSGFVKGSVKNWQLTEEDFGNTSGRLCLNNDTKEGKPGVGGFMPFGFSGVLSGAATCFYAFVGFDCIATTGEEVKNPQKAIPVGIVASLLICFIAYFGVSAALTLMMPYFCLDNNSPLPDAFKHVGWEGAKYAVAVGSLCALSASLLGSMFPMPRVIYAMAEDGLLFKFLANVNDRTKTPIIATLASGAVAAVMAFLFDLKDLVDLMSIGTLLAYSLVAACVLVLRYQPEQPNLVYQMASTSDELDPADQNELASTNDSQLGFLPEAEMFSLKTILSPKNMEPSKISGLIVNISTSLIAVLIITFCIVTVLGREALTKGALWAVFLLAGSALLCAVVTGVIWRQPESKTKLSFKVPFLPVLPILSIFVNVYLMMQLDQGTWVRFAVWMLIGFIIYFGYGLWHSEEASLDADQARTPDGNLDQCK
T2 sequence (P52569 1-697 isoform P52569-2): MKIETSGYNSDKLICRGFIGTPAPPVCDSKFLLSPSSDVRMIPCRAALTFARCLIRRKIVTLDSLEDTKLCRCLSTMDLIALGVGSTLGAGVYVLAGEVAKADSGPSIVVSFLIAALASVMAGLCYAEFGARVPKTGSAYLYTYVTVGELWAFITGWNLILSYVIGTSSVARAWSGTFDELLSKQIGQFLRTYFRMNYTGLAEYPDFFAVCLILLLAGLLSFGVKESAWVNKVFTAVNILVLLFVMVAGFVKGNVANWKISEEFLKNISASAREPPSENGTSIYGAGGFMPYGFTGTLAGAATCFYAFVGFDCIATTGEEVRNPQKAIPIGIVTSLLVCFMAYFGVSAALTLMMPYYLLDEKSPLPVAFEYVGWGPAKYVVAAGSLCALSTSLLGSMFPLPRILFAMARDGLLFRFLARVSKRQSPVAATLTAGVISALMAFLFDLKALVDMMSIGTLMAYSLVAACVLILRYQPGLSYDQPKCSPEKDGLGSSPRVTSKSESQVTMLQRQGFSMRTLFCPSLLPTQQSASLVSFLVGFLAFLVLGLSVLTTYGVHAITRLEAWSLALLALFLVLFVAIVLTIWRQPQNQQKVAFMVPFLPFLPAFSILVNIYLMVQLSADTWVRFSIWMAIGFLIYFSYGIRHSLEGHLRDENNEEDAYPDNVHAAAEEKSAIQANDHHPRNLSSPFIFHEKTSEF

CN(C)C(N)=NCCC[C@H](N)C(=O)O [ADMA, asymmetric dimethylarginine, reference compound]
IC50 [1, 10]: 608 µM | inhibition of CAT2A-mediated transport of L-homoarginine [2]: could only be inhibited by very high (10000 µmol/l) concentrations | IC50 ([3]; substrate L-homoarginine 100 µmol/l, inhibitor 1-10000 µmol/l, read-out: IC50 for inhibition of CAT1-mediated uptake of L-homoarginine): 379 µM

NC(N)=NCCCC[C@H](N)C(=O)O [L-homoarginine]
mean plasma concentration after supplementation [4]: 17.3 µM | Km [5]: 300 µM | IC50 ([1]; read-out: IC50 for inhibition of CAT2B-mediated uptake of L-arginine, substrate L-arginine 1000 µmol/l, inhibitor 1–100000 µmol/l): 1220 µM | IC50 ([1]; substrate ADMA 100 µmol/l, inhibitor 1–100000 µmol/l, read-out: IC50 for inhibition of CAT2B-mediated uptake of ADMA): 1860 µM | cellular uptake of L-homoarginine vs control cells ([6]; L-homoarginine 100 µmol/l, HEK CAT2A vs control cells, p < 0.001): 1.6 fold | saturation of CAT2A-mediated uptake ([6]; increasing L-homoarginine concentrations): could not be reached | Vmax of CAT2A-mediated uptake ([6]; net uptake, 2.5 min, 37 °C, only estimated, limited by maximally attainable L-homoarginine concentration): > 20 nmol × mg protein^−1 × min^−1 | Km [7]: 40 µM | IC50 ([2]; substrate ADMA 100 µmol/l, inhibitor 1–100000 µmol/l): 9240 µM | IC50 ([3]; read-out: IC50 for inhibition of CAT1-mediated uptake of L-arginine, substrate L-arginine 1000 µmol/l, inhibitor 1–100000 µmol/l): 1320 µM | IC50 ([3]; substrate ADMA 100 µmol/l, inhibitor 1–100000 µmol/l, read-out: IC50 for inhibition of CAT1-mediated uptake of ADMA): 642 µM | cellular uptake of L-homoarginine vs control cells ([8]; L-homoarginine 100 µmol/l, HEK CAT1 vs HEK VCG418, p < 0.001): 7 fold | apparent Vmax of CAT1-mediated uptake [8, 11]: 12 ± 0.1 nmol × mg protein^−1 × min^−1 | Km ([8]; net uptake, 2.5 min incubation, 37 °C, read-out: apparent KM of CAT1-mediated uptake): 175 ± 7 µM | cellular uptake of L-homoarginine vs control cells ([9]; L-homoarginine 100 µmol/l, HEK CAT2B vs control cells, p < 0.001): 2.2 fold | apparent Vmax of CAT2B-mediated uptake [9, 11]: 11 ± 0.2 nmol × mg protein^−1 × min^−1 | Km ([9]; net uptake, 2.5 min incubation, 37 °C, read-out: apparent KM of CAT2B-mediated uptake): 523 ± 35 µM

N=C(N)NCCC[C@H](N)C(=O)O [L-arginine, reference compound]
IC50 [1, 10]: 1440 µM | inhibition of CAT2A-mediated transport of L-homoarginine [2]: could only be inhibited by very high (10000 µmol/l) concentrations | inhibition of CAT1-mediated net uptake of L-homoarginine at physiological concentrations ([3]; substrate L-homoarginine 2 µmol/l, inhibitor L-arginine 100 µmol/l, p < 0.01): significantly inhibited

— PMC5500509, “The prognostic biomarker L-homoarginine is a substrate of the cationic amino acid transporters CAT1, CAT2A and CAT2B” (Scientific Reports, 2017)
